US8778923B2, “GLP-1 receptor modulators” (Receptos, Inc., priority 2011, dated 2014)

Target: T1, GLP-1R (Homo sapiens, UniProt P43220)
T1 construct: host or cells: CRE-bla CHO-K1
Assay: EC20 GLP-1(9-36) PAM cAMP assay: dose response of compound in the presence of fixed concentration of GLP-1(9-36)
Type: cell-based
Conditions: GLP-1R CRE-bla CHO-K1 cells, compound dose response in presence of fixed concentration of GLP-1(9-36)
Method: EC20 GLP-1(9-36) PAM cAMP Assay: Dose Response of Compound in the Presence of Fixed Concentration of GLP-1 (9-36).
GLP-1R CRE-bla CHO-K1 cells cultured in growth medium (DMEM-High glucose, 10% dialyzed FBS, 0.1 mM NEAA, 25 mM Hepes, 100 U/mL penicillin/100 μg/mL streptomycin, 5 μg/mL Blasticidin, 600 μg/mL Hygromycin) were tryspsinized and plated in suspension into 384 well white flat bottom plates at 5000 cells/well in 12 μL assay buffer (Hanks Balanced Salt solution, 10 mM Hepes, 0.1% BSA, pH 7.4). A 5× compound dose response curve (12-point) was generated in assay buffer containing 1.5 mM IBMX, 12.5% DMSO. GLP-1(9-36) was diluted to 4.2 μM in assay buffer containing 1.5 mM IBMX and 12.5% DMSO. The 5× compound dose response was added (3 μL), followed by 0.5 μL of GLP-1(9-36) and cells were incubated for 30 min at 37° C. Direct detection of cAMP was carried out using DiscoveRx HitHunter cAMP kit according to manufacturer's instructions and luminescence was read using a SpectraMax M5 plate reader. Luminescence was converted to total cAMP using a cAMP standard curve and data was analyzed by non-linear regression to determine the EC50 and Emax.
GLP-1(7-36): […]-NH2. GLP-1(9-36): […]-NH2. GLP-1(7-36) was purchased from GenScript. GLP-1(9-36) was purchased from Biopeptide Co., Inc.

T1 sequence (P43220 24-463): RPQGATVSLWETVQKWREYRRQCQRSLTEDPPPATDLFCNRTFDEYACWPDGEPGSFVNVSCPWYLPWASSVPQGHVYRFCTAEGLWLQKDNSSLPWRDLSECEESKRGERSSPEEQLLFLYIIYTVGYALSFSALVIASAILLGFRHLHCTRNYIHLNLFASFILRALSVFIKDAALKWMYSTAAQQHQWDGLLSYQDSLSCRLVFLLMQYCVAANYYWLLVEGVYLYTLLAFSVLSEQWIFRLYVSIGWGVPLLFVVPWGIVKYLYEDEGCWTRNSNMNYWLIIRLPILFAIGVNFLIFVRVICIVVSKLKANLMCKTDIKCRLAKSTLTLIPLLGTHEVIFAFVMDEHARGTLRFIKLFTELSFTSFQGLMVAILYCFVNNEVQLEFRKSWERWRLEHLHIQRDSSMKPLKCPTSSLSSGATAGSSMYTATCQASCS
T1 sequence (P01275 100-127 partner limits assumed): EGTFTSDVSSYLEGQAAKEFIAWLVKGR

| SMILES | EC50 [µM] |
| --- | --- |
| CCCCCCCOc1ccc(-c2nc(-c3ccc(C[C@H](NC(=O)c4ccc(C(C)(C)C)cc4)C(=O)NS(C)(=O)=O)cc3)no2)cc1 [Compound 69] | 5 to 10 |
| CCCCCCCOc1ccc(-c2nc(-c3ccc(C[C@H](NC(=O)c4ccc(C(C)(C)C)cc4)C(=O)NC(C)(C)C(=O)O)cc3)no2)cc1 [Compound 70] | 5 to 10 |
| CCCCCCCOc1ccc(-c2nc(-c3ccc(C(NC(=O)c4ccc(C(C)(C)C)cc4)C(=O)O)cc3)no2)cc1 (centres unmarked) [Compound 71] | 2.5 to 5 |
| CC(C)(C)c1ccc(C(=O)NC(C(=O)O)c2ccc(-c3noc(-c4ccc(N5CCCCC5)cc4)n3)cc2)cc1 (centres unmarked) [Compound 72] | 5 to 10 |
| CCCCCCCOc1ccc(-c2nc(-c3ccc(CC[C@H](NC(=O)c4ccc(C(C)(C)C)cc4)C(=O)O)cc3)no2)cc1 [Compound 73] | 0.8 to 2.5 |
| CC(C)(C)c1ccc(C(=O)N[C@@H](CCc2ccc(-c3noc(-c4ccc(N5CCCCC5)cc4)n3)cc2)C(=O)O)cc1 [Compound 74] | 2.5 to 5 |
| CC(C)(C)c1ccc(C(=O)N[C@H](CC(=O)O)Cc2ccc(-c3noc(-c4ccc(N5CCCCC5)cc4)n3)cc2)cc1 [Compound 75] | 2.5 to 5 |
| CCCCCCCOc1ccc(-c2nnc(-c3ccc(C[C@H](NC(=O)c4ccc(C(C)(C)C)cc4)C(=O)O)cc3)o2)cc1 [Compound 76] | 0.8 to 2.5 |
| CCCCCCCOc1ccc(-c2coc(-c3ccc(C[C@H](NC(=O)c4ccc(C(C)(C)C)cc4)C(=O)O)cc3)n2)cc1 [Compound 77] | 0.8 to 2.5 |
| CCCCCCCOc1ccc(-c2nc(-c3ccc(C[C@H](NC(=O)c4ccc(C(C)(C)C)cc4)C(=O)O)cc3)co2)cc1 [Compound 78] | 0.8 to 2.5 |
| CCCCCCCOc1ccc(-c2csc(-c3ccc(C[C@H](NC(=O)c4ccc(C(C)(C)C)cc4)C(=O)O)cc3)n2)cc1 [Compound 79] | 0.8 to 2.5 |
| CCCCCCCOc1ccc(-c2nc(-c3ccc(C[C@H](NC(=O)c4ccc(C(C)(C)C)cc4)C(=O)O)cc3)cs2)cc1 [Compound 80] | 0.8 to 2.5 |
| CCCCCCCOc1ccc(-c2cnc(-c3ccc(CC(NC(=O)c4ccc(C(C)(C)C)cc4)C(=O)O)cc3)s2)cc1 (centres unmarked) [Compound 81] | 5 to 10 |
| CCCCCCCOc1ccc(-c2ncc(-c3ccc(CC(NC(=O)c4ccc(C(C)(C)C)cc4)C(=O)O)cc3)s2)cc1 (centres unmarked) [Compound 82] | 0.8 to 2.5 |
| CCCCCCCOc1ccc(-c2nnc(-c3ccc(C[C@H](NC(=O)c4ccc(C(C)(C)C)cc4)C(=O)O)cc3)s2)cc1 [Compound 83] | 0.8 to 2.5 |
| CCCCCCCOc1ccc(-c2nc(-c3ccc(C[C@H](NC(=O)c4ccc(C(C)(C)C)cc4)C(=O)O)cc3)ns2)cc1 [Compound 84] | 0.8 to 2.5 |
| CCCCCCCOc1ccc(-c2cnc(-c3ccc(C[C@H](NC(=O)c4ccc(C(C)(C)C)cc4)C(=O)O)cc3)nc2)cc1 [Compound 85, (S)-2-(4-(tert-butyl)benzamido)-3-(4-(5-(4-(heptyloxy)phenyl)pyrimidin-2-yl)phenyl)propanoic acid] | 0.8 to 2.5 |
| CCCCCCCOc1ccc(-c2cnc(-c3ccc(C[C@H](NC(=O)c4ccc(OC)cc4)C(=O)O)cc3)nc2)cc1 [Compound 86] | 0.8 to 2.5 |
| CCCCCCCOc1ccc(-c2cnc(-c3ccc(C[C@H](NC(=O)c4ccc(Cl)cc4)C(=O)O)cc3)nc2)cc1 [Compound 87] | 0.8 to 2.5 |
| CCCCCCCOc1ccc(-c2cnc(-c3ccc(C[C@H](NC(=O)Cc4ccccc4)C(=O)O)cc3)nc2)cc1 [Compound 88] | 5 to 10 |
| CCCCCCCOc1ccc(-c2cnc(-c3ccc(C[C@H](NC(=O)c4ccc(CC)cc4)C(=O)O)cc3)nc2)cc1 [Compound 89] | 0.8 to 2.5 |
| CCCCCCCOc1ccc(-c2cnc(-c3ccc(C[C@H](NC(=O)c4ccc(N5CCCC5)cc4)C(=O)O)cc3)nc2)cc1 [Compound 90] | 2.5 to 5 |

| SMILES | EC50 [µM] |
| --- | --- |
| CCCCCCCOc1ccc(-c2cnc(-c3ccc(C[C@H](NC(=O)c4ccc(-c5ccccc5)cc4)C(=O)O)cc3)nc2)cc1 [Compound 91] | 0.8 to 2.5 |
| CCCCCCCOc1ccc(-c2cnc(-c3ccc(C[C@H](NC(=O)c4cccc(N5CCCC5)c4)C(=O)O)cc3)nc2)cc1 [Compound 92] | 0.8 to 2.5 |
| CCCCCCCOc1ccc(-c2cnc(-c3ccc(C[C@H](NC(=O)c4ccc(C(F)(F)F)cc4)C(=O)O)cc3)nc2)cc1 [Compound 93] | 5 to 10 |
| CCCCCCCOc1ccc(-c2cnc(-c3ccc(C[C@H](NC(=O)c4ccc(C(C)C)cc4)C(=O)O)cc3)nc2)cc1 [Compound 94, (S)-3-(4-(5-(4-(heptyloxy)phenyl)pyrimidin-2-yl)phenyl)-2-(4-isopropylbenzamido)propanoic acid] | 0.8 to 2.5 |
| CCCCCCCOc1ccc(-c2cnc(-c3ccc(C[C@H](NC(=O)c4cccc(C(C)C)c4)C(=O)O)cc3)nc2)cc1 [Compound 95] | 0.8 to 2.5 |
| CCCCCCCOc1ccc(-c2cnc(-c3ccc(C[C@H](NC(=O)c4ccc(N(C)C)cc4)C(=O)O)cc3)nc2)cc1 [Compound 96] | 2.5 to 5 |
| CCCCCCCOc1ccc(-c2cnc(-c3ccc(C[C@H](NC(=O)c4ccc(OC(C)C)cc4)C(=O)O)cc3)nc2)cc1 [Compound 97] | 0.8 to 2.5 |
| CCCCCCCOc1ccc(-c2cnc(-c3ccc(C[C@H](NC(=O)c4ccc(C#N)cc4)C(=O)O)cc3)nc2)cc1 [Compound 98] | 0.8 to 2.5 |
| CCCCCCCOc1ccc(-c2cnc(-c3ccc(C[C@H](NC(=O)c4ccc(S(C)(=O)=O)cc4)C(=O)O)cc3)nc2)cc1 [Compound 99] | 0.8 to 2.5 |
| CCCCCCCOc1ccc(-c2cnc(-c3ccc(C[C@H](NC(=O)c4ccc(CC(C)C)cc4)C(=O)O)cc3)nc2)cc1 [Compound 100] | 0.8 to 2.5 |
| CCCCCCCOc1ccc(-c2cnc(-c3ccc(C[C@H](NC(=O)c4ccc(CCC)cc4)C(=O)O)cc3)nc2)cc1 [Compound 101] | 0.8 to 2.5 |
| CCCCCCCOc1ccc(-c2cnc(-c3ccc(C[C@H](NC(=O)c4ccc(N)cc4)C(=O)O)cc3)nc2)cc1 [Compound 102] | 0.8 to 2.5 |
| CCCCCCCOc1ccc(-c2cnc(-c3ccc(C[C@H](NC(=O)c4cccc(N)c4)C(=O)O)cc3)nc2)cc1 [Compound 104] | 0.8 to 2.5 |
| CCCCCCCOc1ccc(-c2cnc(-c3ccc(C[C@H](NC(=O)c4cccc(C#N)c4)C(=O)O)cc3)nc2)cc1 [Compound 105] | 5 to 10 |
| CCCCCCCOc1ccc(-c2cnc(-c3ccc(C[C@H](NC(=O)c4ccc(C(C)(C)C)cc4OC)C(=O)O)cc3)nc2)cc1 [Compound 106] | 0.8 to 2.5 |
| CCCCCCCOc1ccc(-c2cnc(-c3ccc(C[C@H](NC(=O)c4ccc(CCCC)cc4)C(=O)O)cc3)nc2)cc1 [Compound 107] | 0.8 to 2.5 |
| CCCCCCCOc1ccc(-c2cnc(-c3ccc(C[C@H](NC(=O)c4ccc(OCC)cc4)C(=O)O)cc3)nc2)cc1 [Compound 108] | 0.8 to 2.5 |
| CCCCCCCOc1ccc(-c2cnc(-c3ccc(C[C@H](NC(=O)c4ccc(OC)cc4F)C(=O)O)cc3)nc2)cc1 [Compound 109] | 0.8 to 2.5 |
| CCCCCCCOc1ccc(-c2cnc(-c3ccc(C[C@H](NC(=O)c4ccc(C)cc4)C(=O)O)cc3)nc2)cc1 [Compound 110] | 0.8 to 2.5 |
| CCCCCCCOc1ccc(-c2cnc(-c3ccc(C[C@H](NC(=O)c4cccc(C)c4)C(=O)O)cc3)nc2)cc1 [Compound 111] | 0.8 to 2.5 |
| CCCCCCCOc1ccc(-c2cnc(-c3ccc(C[C@H](NC(=O)c4ccc(CC(C)(C)C)cc4)C(=O)O)cc3)nc2)cc1 [Compound 112] | 0.8 to 2.5 |
| CCCCCCCOc1ccc(-c2cnc(-c3ccc(C[C@H](NC(=O)c4ccc(C(C)=O)cc4)C(=O)O)cc3)nc2)cc1 [Compound 113] | 0.8 to 2.5 |
